≈ marks a conversion by molar mass, not a printed value.
What follows are molecules tested on Mycobacterium tuberculosis (assay: Antitubercular activity against multidrug-resistant Mycobacterium tuberculosis).
Format: functional

Row | SMILES | MIC [µM]
1 | CN1C/C(=C\c2ccccc2Cl)C(=O)[C@]2(C1)[C@H](c1ccccc1Cl)[C@@H]1CSCN1[C@@]21C(=O)Nc2ccc([N+](=O)[O-])cc21 | 2.6 (≈ 1.62 µg/mL)
2 | CN1C/C(=C\c2ccc(Br)cc2)C(=O)[C@]2(C1)[C@H](c1ccc(Br)cc1)[C@@H]1CSCN1[C@@]21C(=O)Nc2ccc([N+](=O)[O-])cc21 | 2.3 (≈ 1.63 µg/mL)
3 | CN1C/C(=C\c2ccc(Cl)cc2Cl)C(=O)[C@]2(C1)[C@H](c1ccc(Cl)cc1Cl)[C@@H]1CSCN1[C@@]21C(=O)Nc2ccc([N+](=O)[O-])cc21 | 0.6 (≈ 0.414 µg/mL)
4 | CC[C@@H](CO)NCCN[C@@H](CC)CO [ETHAMBUTOL] | 61.2 (≈ 12.5 µg/mL)
5 | CN1C/C(=C\c2ccc(F)cc2)C(=O)[C@]2(C1)[C@H](c1ccc(F)cc1)[C@@H]1CSCN1[C@@]21C(=O)Nc2ccc(Cl)cc21 | 2.8 (≈ 1.62 µg/mL)
6 | CN1C/C(=C\c2ccc(F)cc2)C(=O)[C@]2(C1)[C@H](c1ccc(F)cc1)[C@@H]1CSCN1[C@@]21C(=O)Nc2ccc([N+](=O)[O-])cc21 | 1.4 (≈ 0.824 µg/mL)
7 | CO[C@H]1/C=C/O[C@@]2(C)Oc3c(C)c(O)c4c(O)c(c(/C=N/N5CCN(C)CC5)c(O)c4c3C2=O)NC(=O)/C(C)=C\C=C\[C@H](C)[C@H](O)[C@@H](C)[C@@H](O)[C@@H](C)[C@H](OC(C)=O)[C@@H]1C [RIFAMPIN] | 3.8 (≈ 3.13 µg/mL)
8 | NC(=O)c1cnccn1 [PYRAZINAMIDE] | 406 (≈ 50 µg/mL)
9 | CN1C/C(=C\c2ccc(Cl)cc2Cl)C(=O)[C@]2(C1)[C@H](c1ccc(Cl)cc1Cl)[C@@H]1CSCN1[C@@]21C(=O)Nc2ccc(Cl)cc21 | 2.4 (≈ 1.63 µg/mL)
10 | NNC(=O)c1ccncc1 [ISONIAZID] | 11.4 (≈ 1.56 µg/mL)

Reference: ChEMBL document CHEMBL1153107, “A highly atom economic, chemo-, regio- and stereoselective synthesis and evaluation of spiro-pyrrolothiazoles as antitubercular agents” (2010)
